Measurements as given in patent US8975406B2, “Compound useful for the treatment of degenerative and inflammatory diseases” (Galapagos N.V., priority 2011, dated 2015).

Legend:
[1] = target: T1, Recombinant human TYK2 catalytic domain (Homo sapiens, UniProt P29597); assay: TYK2 inhibition assay; format: biochemical; conditions: polyGT substrate, 33P-gamma-ATP filter assay, 0.1 μM ATP
T1 construct: catalytic domain (amino acids 871-1187; catalog number 08-147); GST; purchased Carna Biosciences 08-147
T1 sequence (P29597 871-1187): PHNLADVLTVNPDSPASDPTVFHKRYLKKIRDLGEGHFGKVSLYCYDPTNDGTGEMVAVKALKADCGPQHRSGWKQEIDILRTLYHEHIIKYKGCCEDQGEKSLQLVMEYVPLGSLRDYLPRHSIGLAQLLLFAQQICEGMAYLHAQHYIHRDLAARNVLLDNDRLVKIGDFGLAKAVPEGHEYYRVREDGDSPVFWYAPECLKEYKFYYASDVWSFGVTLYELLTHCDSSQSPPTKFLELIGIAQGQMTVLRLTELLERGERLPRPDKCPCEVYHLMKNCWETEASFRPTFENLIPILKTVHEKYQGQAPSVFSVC
Procedure: Recombinant human TYK2 catalytic domain (amino acids 871-1187; catalog number 08-147) was purchased from Carna biosciences. 4 ng of TYK2 was incubated with 12.5 μg polyGT substrate (Sigma catalog number P0275) in kinase reaction buffer (25 mM Hepes pH 7.2, 50 mM NaCl, 0.5 mM EDTA, 1 mM DTT, 5 mM MnCl2, 10 mM MgCl2, 0.1% Brij-35, 0.1 μM non-radioactive ATP, 0.125 μCi ^33P-gamma-ATP (Perkin Elmer, catalog number NEG602K001MC) final concentrations) with or without 5 μL containing test compound or vehicle (DMSO, 1% final concentration), in a total volume of 25 μL, in a polypropylene 96-well plate (Greiner, V-bottom). After 90 min at 30° C., reactions were stopped by adding 25 μL/well of 150 mM phosphoric acid. All of the terminated kinase reaction was transferred to prewashed (75 mM phosphoric acid) 96 well filter plates (Perkin Elmer catalog number 6005177) using a cell harvester (Perkin Elmer). Plates were washed 6 times with 300 μL per well of a 75 mM phosphoric acid solution and the bottom of the plates was sealed. 40 μL/well of Microscint-20 was added, the top of the plates was sealed and readout was performed using the Topcount (Perkin Elmer). Kinase activity was calculated by subtracting counts per min (cpm) obtained in the presence of a positive control inhibitor (10 μM staurosporine) from cpm obtained in the presence of vehicle. The ability of a test compound to inhibit this activity was determined as: Percentage inhibition=((cpm determined for sample with test compound present−cpm determined for sample with positive control inhibitor)divided by(cpm determined in the presence of vehicle−cpm determined for sample with positive control inhibitor))*100.
(§1) Dose dilution series were prepared for the compounds enabling the testing of dose-response effects in the TYK2 assay and the calculation of the IC50 for each compound. Each compound was routinely tested at concentration of 20 μM followed by a ⅓ serial dilution, 8 points (20 μM-6.67 μM-2.22 μM-740 nM-247 nM-82 nM-27 nM-9 nM) in a final concentration of 1% DMSO. When potency of compound series increased, more dilutions were prepared and/or the top concentration was lowered (e.g. 5 μM, 1 μM).

[2] = target: T2, Recombinant human JAK3 catalytic domain (Homo sapiens, UniProt P52333); assay: JAK3 inhibition assay; format: biochemical; conditions: polyGT substrate, 33P-gamma-ATP filter assay, 1 μM ATP
T2 construct: catalytic domain (amino acids 795-1124; catalog number 08-046); purchased Carna Biosciences 08-046
T2 sequence (P52333 795-1124): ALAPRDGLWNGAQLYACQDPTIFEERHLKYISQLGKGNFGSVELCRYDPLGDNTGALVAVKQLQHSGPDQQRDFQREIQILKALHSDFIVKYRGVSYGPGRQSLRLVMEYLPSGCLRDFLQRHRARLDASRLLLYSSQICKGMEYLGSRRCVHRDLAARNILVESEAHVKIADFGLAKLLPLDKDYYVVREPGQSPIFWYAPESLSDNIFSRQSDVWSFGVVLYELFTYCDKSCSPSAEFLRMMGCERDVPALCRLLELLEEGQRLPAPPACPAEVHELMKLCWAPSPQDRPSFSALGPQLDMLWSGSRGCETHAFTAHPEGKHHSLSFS
Procedure: Recombinant human JAK3 catalytic domain (amino acids 795-1124; catalog number 08-046) was purchased from Carna Biosciences. 0.5 ng JAK3 protein was incubated with 2.5 μg polyGT substrate (Sigma catalog number P0275) in kinase reaction buffer (25 mM Tris pH 7.5, 0.5 mM EGTA, 10 mM MgCl2, 2.5 mM DTT, 0.5 mM Na3VO4, 5 mM b-glycerolphosphate, 0.01% Triton X-100, 1 μM non-radioactive ATP, 0.25 μCi ^33P-gamma-ATP (Perkin Elmer, catalog number NEG602K001MC) final concentrations) with or without 5 μL containing test compound or vehicle (DMSO, 1% final concentration), in a total volume of 25 μL, in a polypropylene 96-well plate (Greiner, V-bottom). After 45 min at 30° C., reactions were stopped by adding 25 μL/well of 150 mM phosphoric acid. All of the terminated kinase reaction was transferred to prewashed (75 mM phosphoric acid) 96 well filter plates (Perkin Elmer catalog number 6005177) using a cell harvester (Perkin Elmer). Plates were washed 6 times with 300 μL per well of a 75 mM phosphoric acid solution and the bottom of the plates was sealed. 40 μL/well of Microscint-20 was added, the top of the plates was sealed and readout was performed using the Topcount (Perkin Elmer). Kinase activity was calculated by subtracting counts per min (cpm) obtained in the presence of a positive control inhibitor (10 μM staurosporine) from cpm obtained in the presence of vehicle. The ability of a test compound to inhibit this activity was determined as: Percentage inhibition=((cpm determined for sample with test compound present−cpm determined for sample with positive control inhibitor)divided by(cpm determined in the presence of vehicle−cpm determined for sample with positive control inhibitor))*100.
as §1, with “JAK3” for “TYK2”, “⅕” for “⅓”, “10” for “8”, “points” for “points (20 μM-6.67 μM-2.22 μM-740 nM-247 nM-82 nM-27 nM-9 nM)”

SMILES	IC50 [1] [nM]	IC50 [2] [nM]
COc1ccc(-c2cccn3nc(NC(=O)C4CC4)cc23)cc1 [Compound 1, N-(4-(4-methoxyphenyl)pyrazolo[1,5-a]pyridin-2-yl)cyclopropanecarboxamide]	0.01 to 100	0.01 to 100
O=C(Nc1cc2c(-c3ccc4[nH]ccc4c3)cccn2n1)C1CC1 [Compound 4, N-(4-(1H-indol-5-yl)pyrazolo[1,5-a]pyridin-2-yl)cyclopropanecarboxamide]	0.01 to 100	0.01 to 100
COc1ccc(-c2cccn3nc(NC(=O)C4CC4)c(-c4ccccc4)c23)cc1 [Compound 7, N-(4-(4-methoxyphenyl)-3-phenylpyrazolo[1,5-a]pyridin-2-yl)cyclopropanecarboxamide]	> 1000	> 1000
O=C(Nc1cc2c(-c3ccc(OCc4cccnc4)cc3)cccn2n1)C1CC1 [Compound 8, N-(4-(4-(pyridin-3-ylmethoxy)phenyl)pyrazolo[1,5-a]pyridin-2-yl)cyclopropanecarboxamide]	–	101 to 500
O=C(Nc1nn2cccc(-c3ccc(CN4CCS(=O)(=O)CC4)cc3)c2c1F)C1CC1 [Compound 11, Cyclopropanecarboxylic acid {4-[4-(1,1-dioxo-thiomorpholin-4-ylmethyl)-phenyl]-3-fluoro-pyrazolo[1,5-a]pyridin-2-yl}-amide]	0.01 to 100	0.01 to 100
O=C(Nc1nn2cccc(-c3ccc(CN4CCS(=O)(=O)CC4)cc3)c2c1Br)C1CC1 [Compound 12, Cyclopropanecarboxylic acid {4-[4-(1,1-dioxo-thiomorpholin-4-ylmethyl)-phenyl]-3-bromo-pyrazolo[1,5-a]pyridin-2-yl}-amide]	0.01 to 100	101 to 500
O=C(Nc1cc2c(-c3ccc(C(=O)N4CCCCC4)cc3)cccn2n1)C1CC1 [Compound 14, Cyclopropanecarboxylic acid {4-[4-(piperidine-1-carbonyl)-phenyl]-pyrazolo[1,5-a]pyridin-2-yl}-amide]	0.01 to 100	101 to 500
CS(=O)(=O)C1CCN(Cc2ccc(-c3cccn4nc(NC(=O)C5CC5)cc34)cc2F)CC1 [Compound 18, N-(4-(3-fluoro-4-((4-(methylsulfonyl)piperidin-1-yl)methyl)phenyl)pyrazolo[1,5-a]pyridin-2-yl)cyclopropanecarboxamide]	0.01 to 100	101 to 500
CS(=O)(=O)C1CCN(Cc2ccc(-c3cccn4nc(NC(=O)C5CC5)c(Cl)c34)cc2F)CC1 [Compound 20, N-(3-chloro-4-(3-fluoro-4-((4-(methylsulfonyl)piperidin-1-yl)methyl)phenyl)pyrazolo[1,5-a]pyridin-2-yl)cyclopropanecarboxamide]	0.01 to 100	501 to 1000
CC(=O)Nc1cc2c(-c3ccc(CN4CCN(S(C)(=O)=O)CC4)c(F)c3)cccn2n1 [Compound 21]	101 to 500	101 to 500
CC(=O)Nc1cc2c(-c3ccc(CN4CCN(S(C)(=O)=O)C[C@H]4C)cc3)cccn2n1 [Compound 24, (R)-N-(4-(4-((2-methyl-4-(methylsulfonyl)piperazin-1-yl)methyl)phenyl)pyrazolo[1,5-a]pyridin-2-yl)acetamide]	501 to 1000	501 to 1000

Results, then the compound that gave them:

IC50 [1] [nM]	IC50 [2] [nM]	SMILES
101 to 500	0.01 to 100	O=C(Nc1cc2c(-c3ccc(OCc4ccccc4)cc3)cccn2n1)C1CC1 [Compound 2, N-(4-(4-(benzyloxy)phenyl)pyrazolo[1,5-a]pyridin-2-yl)cyclopropanecarboxamide]
101 to 500	0.01 to 100	O=C(Nc1cc2c(-c3ccc4c(ccn4Cc4ccccc4)c3)cccn2n1)C1CC1 [Compound 3, N-(4-(1-benzyl-1H-indol-5-yl)pyrazolo[1,5-a]pyridin-2-yl)cyclopropanecarboxamide]
0.01 to 100	> 1000	O=C(NCCc1ccccc1)c1ccc(-c2cccn3nc(NC(=O)C4CC4)cc23)cc1 [Compound 5, 4-(2-(cyclopropanecarboxamido)pyrazolo[1,5-a]pyridin-4-yl)-N-phenethylbenzamide]
101 to 500	0.01 to 100	O=C(NCCOc1ccccc1)c1ccc(-c2cccn3nc(NC(=O)C4CC4)cc23)cc1 [Compound 6, 4-(2-(cyclopropanecarboxamido)pyrazolo[1,5-a]pyridin-4-yl)-N-(2-phenoxyethyl)benzamide]
0.01 to 100	0.01 to 100	N#Cc1ccc(COc2ccc(-c3cccn4nc(NC(=O)C5CC5)cc34)cc2)cn1 [Compound 9, N-(4-(4-((6-cyanopyridin-3-yl)methoxy)phenyl)pyrazolo[1,5-a]pyridin-2-yl)cyclopropanecarboxamide]
0.01 to 100	0.01 to 100	O=C(Nc1cc2c(-c3ccc(CN4CCS(=O)(=O)CC4)cc3)cccn2n1)C1CC1 [Compound 10, Cyclopropanecarboxylic acid {4-[4-(1,1-dioxo-thiomorpholin-4-ylmethyl)-phenyl]-pyrazolo[1,5-a]pyridin-2-yl}-amide]
0.01 to 100	101 to 500	O=C(Nc1nn2cccc(-c3ccc(CN4CCS(=O)(=O)CC4)cc3)c2c1Cl)C1CC1 [Compound 13, Cyclopropanecarboxylic acid {4-[4-(1,1-dioxo-thiomorpholin-4-ylmethyl)-phenyl]-3-chloro-pyrazolo[1,5-a]pyridin-2-yl}-amide]
0.01 to 100	0.01 to 100	CS(=O)(=O)N1CCN(Cc2ccc(-c3cccn4nc(NC(=O)C5CC5)cc34)cc2)CC1 [Compound 15, N-(4-(4-((4-(methylsulfonyl)piperazin-1-yl)methyl)phenyl)pyrazolo[1,5-a]pyridin-2-yl)cyclopropanecarboxamide]
0.01 to 100	101 to 500	CS(=O)(=O)C1CCN(Cc2ccc(-c3cccn4nc(NC(=O)C5CC5)cc34)cc2)CC1 [Compound 17, N-(4-(4-((4-(methylsulfonyl)piperidin-1-yl)methyl)phenyl)pyrazolo[1,5-a]pyridin-2-yl)cyclopropanecarboxamide]
101 to 500	> 1000	CS(=O)(=O)C1CCN(Cc2ccc(-c3cccn4nc(NC(=O)C5CC5)c(Cl)c34)cc2)CC1 [Compound 19, N-(3-chloro-4-(4-((4-(methylsulfonyl)piperidin-1-yl)methyl)phenyl)pyrazolo[1,5-a]pyridin-2-yl)cyclopropanecarboxamide]
101 to 500	101 to 500	CS(=O)(=O)N1CCN(Cc2ccc(-c3cccn4nc(NC(=O)C5CC5)cc34)cn2)CC1 [Compound 23, N-(4-(6-((4-(methylsulfonyl)piperazin-1-yl)methyl)pyridin-3-yl)pyrazolo[1,5-a]pyridin-2-yl)cyclopropanecarboxamide]
